Numbered stars: 1 amine (or outer) side, 2 acyl side, 3 side chain; on linkers, the order of the positions; unused ones are H or OH. Bridge positions count the residues as written; N and C are the ends. Square brackets hold non-standard residues; d marks the D form. Side chains are listed from the residue outwards. Peptide text beside a SMILES is read from it. * marks the point of attachment. C20 diacid = O=C(O)CCCCCCCCCCCCCCCCCCC(=O)*; γGlu = O=C(O)[C@H](CCC(=O)[*:2])N[*:1]; Hyp = O=C(O)[C@@H]1C[C@@H](O)CN1; AEEA = NCCOCCOCC(=O)O

As a reminder, the EC50 is the concentration needed to bring the measured effect to its halfway point.

Test [1] addresses hAM1 receptor (Homo sapiens, UniProt O60895+Q16602). Nature of the test: cAMP assay for in vitro receptor activation, hAM1-R. The class given is cell-based. Conditions: cAMP assay, hAM1 receptor; read-out: hAM1R EC50. In short, it runs like this: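 Monoclonal stable hAM1-overexpressing cells, thawed from frozen stock; 8000 cells/well in DPBS + 0.05% casein + 0.5 mM IBMX; read-out cAMP.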
(In general: Cyclic AMP is a second messenger, typically raised through Gs and lowered through Gi signalling.)

Test [2] concerns the target T1, hAMY3 receptor (Homo sapiens, UniProt O60896+P30988).
T1 sequence (P30988 25-474): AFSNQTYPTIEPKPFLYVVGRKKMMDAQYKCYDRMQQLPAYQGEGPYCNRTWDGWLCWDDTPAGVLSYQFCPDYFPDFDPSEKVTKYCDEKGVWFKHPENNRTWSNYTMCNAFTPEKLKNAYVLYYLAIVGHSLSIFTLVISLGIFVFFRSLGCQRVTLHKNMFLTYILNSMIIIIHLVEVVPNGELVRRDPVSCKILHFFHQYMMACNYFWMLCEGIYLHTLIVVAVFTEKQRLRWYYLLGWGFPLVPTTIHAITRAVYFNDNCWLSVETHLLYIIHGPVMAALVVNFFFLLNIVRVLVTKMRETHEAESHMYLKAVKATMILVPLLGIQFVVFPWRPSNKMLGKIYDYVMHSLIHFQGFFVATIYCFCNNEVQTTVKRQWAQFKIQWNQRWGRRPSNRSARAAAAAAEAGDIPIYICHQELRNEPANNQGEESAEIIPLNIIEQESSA
T1 sequence (O60896 24-148 partner): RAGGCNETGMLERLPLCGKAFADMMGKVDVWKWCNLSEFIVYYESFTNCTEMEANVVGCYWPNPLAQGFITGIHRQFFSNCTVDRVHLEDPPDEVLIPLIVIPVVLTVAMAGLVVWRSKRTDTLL
Nature of the test: cAMP assay for in vitro receptor activation, hAMY3-R. The class given is cell-based. Conditions: cAMP assay, hAMY3 receptor; read-out: hAMY3R EC50. In short, it runs like this:
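Read-out is TR-FRET cAMP signal, recorded one hour after reagent addition, following 30 min room-temperature stimulation of stable hAMY3 cells with graded compound doses in casein/IBMX (0.5 mM) buffer.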

Chain of hAM1 receptor (Q16602 23-461): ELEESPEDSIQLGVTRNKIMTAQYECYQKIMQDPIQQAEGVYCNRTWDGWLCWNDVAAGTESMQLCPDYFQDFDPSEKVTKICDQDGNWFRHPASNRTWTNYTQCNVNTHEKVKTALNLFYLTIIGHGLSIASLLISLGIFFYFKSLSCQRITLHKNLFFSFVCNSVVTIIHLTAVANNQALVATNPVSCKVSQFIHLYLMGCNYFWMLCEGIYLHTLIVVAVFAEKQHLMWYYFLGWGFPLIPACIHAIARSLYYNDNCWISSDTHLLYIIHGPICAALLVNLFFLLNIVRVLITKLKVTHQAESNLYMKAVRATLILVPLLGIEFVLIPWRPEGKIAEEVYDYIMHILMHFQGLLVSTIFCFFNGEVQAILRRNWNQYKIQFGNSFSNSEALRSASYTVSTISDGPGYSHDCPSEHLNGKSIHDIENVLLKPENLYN
Chain of hAM1 receptor (O60895 43-175 partner): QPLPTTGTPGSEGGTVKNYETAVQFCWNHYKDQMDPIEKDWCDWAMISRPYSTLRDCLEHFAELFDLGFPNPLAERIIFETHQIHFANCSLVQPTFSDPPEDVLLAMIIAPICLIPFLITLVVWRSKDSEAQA

With `CC[C@H](C)[C@H](NC(=O)[C@H](CCC(N)=O)NC(=O)[C@H](CCC(=O)O)NC(=O)[C@H](C)NC(=O)[C@H](CC(C)C)NC(=O)[C@H](CCCNC(=N)N)NC(=O)[C@H](CCC(N)=O)NC(=O)[C@@H](NC(=O)[C@@H](NC(=O)[C@@H]1CSSC[C@H](NC(=O)[C@H](CCCCN)NC(=O)CC[C@H](NC(=O)CCCCCCCCCCCCCCCCCCC(=O)O)C(=O)O)C(=O)N[C@@H](CC(N)=O)C(=O)N[C@@H]([C@@H](C)O)C(=O)N[C@@H](C)C(=O)N[C@@H]([C@@H](C)O)C(=O)N1)[C@@H](C)O)C(C)C)C(=O)N[C@@H](Cc1ccc(O)cc1)C(=O)N[C@@H](CCC(N)=O)C(=O)N[C@@H](Cc1ccccc1)C(=O)N[C@H](C(=O)N[C@@H](CC(=O)O)C(=O)N[C@@H](CCCCN)C(=O)N[C@@H](C)C(=O)N[C@@H](CCCCN)C(=O)N[C@@H](CC(=O)O)C(=O)N[C@@H](CC(N)=O)C(=O)N[C@H](C(=O)N[C@@H](C)C(=O)N1CCC[C@H]1C(=O)N1CCC[C@H]1C(=O)N[C@H](C(=O)N[C@@H](CC(N)=O)C(=O)N[C@H](C(=O)NCC(=O)N[C@@H](CO)C(=O)N[C@@H](CC(N)=O)C(=O)NCC(=O)N1C[C@H](O)C[C@H]1C(N)=O)C(C)C)[C@@H](C)O)C(C)C)[C@@H](C)O` [compound 122] ({C20 diacid-γGlu}-KCNTATCTVQRLAEQIYQFTDKAKDNVAPPTNVGSNG[Hyp]-NH2; disulfide 2-7), the figures for the EC50 in test [1] and in test [2] were > 5000 nM and 0.026 nM, respectively.
For `CC[C@H](C)[C@H](NC(=O)[C@H](CCC(N)=O)NC(=O)[C@H](CCC(=O)O)NC(=O)[C@H](C)NC(=O)[C@H](CC(C)C)NC(=O)[C@H](CCCNC(=N)N)NC(=O)[C@H](CCC(N)=O)NC(=O)[C@@H](NC(=O)[C@@H](NC(=O)[C@@H]1CSSC[C@H](NC(=O)[C@@H](N)CCCCN)C(=O)N[C@@H](CC(N)=O)C(=O)N[C@@H](C)C(=O)N[C@@H](C)C(=O)N[C@@H]([C@@H](C)O)C(=O)N1)[C@@H](C)O)C(C)C)C(=O)N[C@@H](Cc1ccc(O)cc1)C(=O)N[C@@H](CCC(N)=O)C(=O)N[C@@H](Cc1ccccc1)C(=O)N[C@H](C(=O)N[C@@H](CC(=O)O)C(=O)N[C@@H](CCCCN)C(=O)N[C@@H](CC(=O)O)C(=O)N[C@@H](CCCCN)C(=O)N[C@@H](CC(=O)O)C(=O)N[C@@H](CC(N)=O)C(=O)N[C@H](C(=O)N[C@@H](C)C(=O)N1CCC[C@H]1C(=O)N1CCC[C@H]1C(=O)N[C@H](C(=O)N[C@@H](CC(N)=O)C(=O)N[C@H](C(=O)NCC(=O)N[C@@H](CO)C(=O)N[C@@H](CC(N)=O)C(=O)NCC(=O)N1C[C@H](O)C[C@H]1C(N)=O)C(C)C)[C@@H](C)O)C(C)C)[C@@H](C)O` [compound 101] (H-KCNAATCTVQRLAEQIYQFTDKDKDNVAPPTNVGSNG[Hyp]-NH2; disulfide 2-7; N-terminus assumed) the same measures were > 5000 nM and 0.017 nM.
For `CC[C@H](C)[C@H](NC(=O)[C@H](CCC(N)=O)NC(=O)[C@H](CCC(=O)O)NC(=O)[C@H](C)NC(=O)[C@H](CC(C)C)NC(=O)[C@H](CCCNC(=N)N)NC(=O)[C@H](CCC(N)=O)NC(=O)[C@@H](NC(=O)[C@@H](NC(=O)[C@@H]1CSSC[C@H](NC(=O)[C@@H](N)CCCCN)C(=O)N[C@@H](CC(N)=O)C(=O)N[C@@H]([C@@H](C)O)C(=O)N[C@@H](C)C(=O)N[C@@H]([C@@H](C)O)C(=O)N1)[C@@H](C)O)C(C)C)C(=O)N[C@@H](Cc1ccc(O)cc1)C(=O)N[C@@H](CCC(N)=O)C(=O)N[C@@H](Cc1ccccc1)C(=O)N[C@H](C(=O)N[C@@H](CC(=O)O)C(=O)N[C@@H](CCCCN)C(=O)N[C@@H](CC(=O)O)C(=O)N[C@@H](CCCCN)C(=O)N[C@@H](CC(=O)O)C(=O)N[C@@H](CC(N)=O)C(=O)N[C@@H](CCCCNC(=O)COCCOCCNC(=O)COCCOCCNC(=O)CC[C@H](NC(=O)CCCCCCCCCCCCCCCCCCC(=O)O)C(=O)O)C(=O)N[C@@H](C)C(=O)N1CCC[C@H]1C(=O)N1CCC[C@H]1C(=O)N[C@H](C(=O)N[C@@H](CC(N)=O)C(=O)N[C@H](C(=O)NCC(=O)N[C@@H](CO)C(=O)N[C@@H](CC(N)=O)C(=O)NCC(=O)N1C[C@H](O)C[C@H]1C(N)=O)C(C)C)[C@@H](C)O)[C@@H](C)O` [compound 12] (H-KCNTATCTVQRLAEQIYQFTDKDKDNK([AEEA-AEEA-γGlu-C20 diacid])APPTNVGSNG[Hyp]-NH2; disulfide 2-7; N-terminus assumed) the same measures were > 5000 nM and 0.007 nM.
For `CC[C@H](C)[C@H](NC(=O)[C@H](CCC(N)=O)NC(=O)[C@H](Cc1c[nH]cn1)NC(=O)[C@H](C)NC(=O)[C@H](CC(C)C)NC(=O)[C@H](CCCNC(=N)N)NC(=O)[C@H](CCC(N)=O)NC(=O)[C@@H](NC(=O)[C@@H](NC(=O)[C@@H]1CSSC[C@H](NC(=O)[C@H](CCCCN)NC(=O)CC[C@H](NC(=O)CCCCCCCCCCCCCCCCCCC(=O)O)C(=O)O)C(=O)N[C@@H](CC(N)=O)C(=O)N[C@@H]([C@@H](C)O)C(=O)N[C@@H](C)C(=O)N[C@@H]([C@@H](C)O)C(=O)N1)[C@@H](C)O)C(C)C)C(=O)N[C@@H](CCC(=O)O)C(=O)N[C@@H](CCC(N)=O)C(=O)N[C@@H](Cc1ccccc1)C(=O)N[C@H](C(=O)N[C@@H](CC(=O)O)C(=O)N[C@@H](CCCCN)C(=O)N[C@@H](CC(=O)O)C(=O)N[C@@H](CCCCN)C(=O)N[C@@H](CC(=O)O)C(=O)N[C@@H](CC(N)=O)C(=O)N[C@H](C(=O)N[C@@H](C)C(=O)N1CCC[C@H]1C(=O)N1CCC[C@H]1C(=O)N[C@H](C(=O)N[C@@H](CC(N)=O)C(=O)N[C@H](C(=O)NCC(=O)N[C@@H](CO)C(=O)N[C@@H](CC(N)=O)C(=O)NCC(=O)N1C[C@H](O)C[C@H]1C(N)=O)C(C)C)[C@@H](C)O)C(C)C)[C@@H](C)O` [compound 110] ({C20 diacid-γGlu}-KCNTATCTVQRLAHQIEQFTDKDKDNVAPPTNVGSNG[Hyp]-NH2; disulfide 2-7) the same measures were > 5000 nM and 0.02 nM.
Regarding `CC[C@H](C)[C@H](NC(=O)[C@H](CCC(N)=O)NC(=O)[C@H](Cc1c[nH]cn1)NC(=O)[C@H](C)NC(=O)[C@H](CC(C)C)NC(=O)[C@H](CCCNC(=N)N)NC(=O)[C@H](CCC(N)=O)NC(=O)[C@@H](NC(=O)[C@@H](NC(=O)[C@@H]1CSSC[C@H](NC(=O)[C@H](CCCCN)NC(=O)CC[C@H](NC(=O)CCCCCCCCCCCCCCCCCCC(=O)O)C(=O)O)C(=O)N[C@@H](CC(N)=O)C(=O)N[C@@H]([C@@H](C)O)C(=O)N[C@@H](CO)C(=O)N[C@@H]([C@@H](C)O)C(=O)N1)[C@@H](C)O)C(C)C)C(=O)N[C@@H](C)C(=O)N[C@@H](CCC(N)=O)C(=O)N[C@@H](Cc1ccccc1)C(=O)N[C@H](C(=O)N[C@@H](CC(=O)O)C(=O)N[C@@H](CCCCN)C(=O)N[C@@H](CC(=O)O)C(=O)N[C@@H](CCCCN)C(=O)N[C@@H](CC(=O)O)C(=O)N1CCC[C@H]1C(=O)N[C@H](C(=O)N[C@@H](C)C(=O)N1CCC[C@H]1C(=O)N1CCC[C@H]1C(=O)N[C@H](C(=O)N[C@@H](CC(N)=O)C(=O)N[C@H](C(=O)NCC(=O)N[C@@H](CO)C(=O)N[C@@H](CC(N)=O)C(=O)NCC(=O)N1C[C@H](O)C[C@H]1C(N)=O)C(C)C)[C@@H](C)O)C(C)C)[C@@H](C)O` [compound 88] ({C20 diacid-γGlu}-KCNTSTCTVQRLAHQIAQFTDKDKDPVAPPTNVGSNG[Hyp]-NH2; disulfide 2-7), the EC50 is > 5000 nM in test [1] and 0.015 nM in test [2].
Taken in the same sequence, the figures for `CC[C@H](C)[C@H](NC(=O)[C@H](CCC(N)=O)NC(=O)[C@H](CCC(=O)O)NC(=O)[C@H](C)NC(=O)[C@H](CC(C)C)NC(=O)[C@H](CCCNC(=N)N)NC(=O)[C@H](C)NC(=O)[C@@H](NC(=O)[C@@H](NC(=O)[C@@H]1CSSC[C@H](NC(=O)[C@H](CCCCN)NC(=O)CC[C@H](NC(=O)CCCCCCCCCCCCCCCCCCC(=O)O)C(=O)O)C(=O)N[C@@H](CC(N)=O)C(=O)N[C@@H]([C@@H](C)O)C(=O)N[C@@H](C)C(=O)N[C@@H]([C@@H](C)O)C(=O)N1)[C@@H](C)O)C(C)C)C(=O)N[C@@H](Cc1ccc(O)cc1)C(=O)N[C@@H](CCC(N)=O)C(=O)N[C@@H](Cc1ccccc1)C(=O)N[C@H](C(=O)N[C@@H](CC(=O)O)C(=O)N[C@@H](CCCCN)C(=O)N[C@@H](CC(=O)O)C(=O)N[C@@H](CCCCN)C(=O)N[C@@H](CC(=O)O)C(=O)N1CCC[C@H]1C(=O)N[C@H](C(=O)N[C@@H](C)C(=O)N1CCC[C@H]1C(=O)N1CCC[C@H]1C(=O)N[C@H](C(=O)N[C@@H](CC(N)=O)C(=O)N[C@H](C(=O)NCC(=O)N[C@@H](CO)C(=O)N[C@@H](CC(N)=O)C(=O)NCC(=O)N1C[C@H](O)C[C@H]1C(N)=O)C(C)C)[C@@H](C)O)C(C)C)[C@@H](C)O` [compound 133] ({C20 diacid-γGlu}-KCNTATCTVARLAEQIYQFTDKDKDPVAPPTNVGSNG[Hyp]-NH2; disulfide 2-7) were > 5000 nM and 0.031 nM.

These data come from patent publication US12139520B2 (priority 2020, dated 2024).
